How the values were obtained:
[1] = system: TRAMP-C2 mouse prostate cancer; experiment: TRAMP-C2 cancer growth and blood vessel density in syngeneic mice; type: in vivo; settings: 5 mg/kg/day via the drinking water
Description: Tasquinimod's oral potency is not restricted to human prostate cancer xenografts growing in immune-suppressed mice.
The source, history, and characteristics of the human prostate cancer cell lines (i.e., LNCaP, LAPC4, and CWR-22Rv1 and the human umbilical vascular endothelial cells (HUVEC) used, as well as cell culture conditions for their in vitro maintenance and the in vivo protocol for their xenografting into immune-deficient nude male mice are as described previously. The source, history, and characteristics of the TRAMP-C2 mouse prostate cancer line, as well as cell culture conditions for their in vitro maintenance and the in vivo protocol for their growth in intact adult male syngeneic C57Bl/6J are as described previously. All lines were mycoplasma negative using the MycoSensor PCR Assay kit (Agilent Technologies) and genetically authenticated within the last 6 months using short tandem repeat profiling conducted by the Johns Hopkins Genetic Resource Core Facility. The source, history, and characteristics of the CWR-RH human prostate cancer xenograft are as described previously. In vitro growth curves were determined as described. Animal studies were conducted according to animal protocol MO09M434 approved by Johns Hopkins Animal Care and Use Committee. […]

[2] = system: CWR-22RH human prostate cancer; experiment: Tumor take of CWR-22RH xenografts in castrated nude mice; type: in vivo, mouse; settings: tasquinimod alone 10mg/kg/day via drinking water from inoculation
Method: To confirm this conclusion, castrated male nude mice were xenografted with the castrate resistant CWR-22RH human prostate cancer tissue and the animals immediately randomized into groups (n=10) which were: 1) left untreated as controls; 2) given daily oral treatment with tasquinimod alone via the drinking water (10mg/kg/day); 3) given oral ketoconazole alone via oral gavage at a daily dose which inhibits cytochrome P450 3A4 (i.e., 25 mg/kg/day); or 4) given a combination of the two drugs. […] These combined in vitro/in vivo results document tasquinimod, not one of its metabolites, is the active drug.
(§1) The source, history, and characteristics of the human prostate cancer cell lines (i.e., LNCaP, LAPC4, and CWR-22Rv1 and the human umbilical vascular endothelial cells (HUVEC) used, as well as cell culture conditions for their in vitro maintenance and the in vivo protocol for their xenografting into immune-deficient nude male mice are as described previously. The source, history, and characteristics of the TRAMP-C2 mouse prostate cancer line, as well as cell culture conditions for their in vitro maintenance and the in vivo protocol for their growth in intact adult male syngeneic C57Bl/6J are as described previously. All lines were mycoplasma negative using the MycoSensor PCR Assay kit (Agilent Technologies) and genetically authenticated within the last 6 months using short tandem repeat profiling conducted by the Johns Hopkins Genetic Resource Core Facility. The source, history, and characteristics of the CWR-RH human prostate cancer xenograft are as described previously. In vitro growth curves were determined as described. Animal studies were conducted according to animal protocol MO09M434 approved by Johns Hopkins Animal Care and Use Committee. Daily drug dosing via oral gavage, the drinking water, or subcutaneous injection, as well as tumor volume measurements and determination of the blood vessel density within cancers, were as described previously. These experiments were repeated at 3 independent times for each xenograft.

[3] = system: CWR-22Rv1 human prostate cancer xenografts; experiment: Dose-response growth inhibition of established CWR-22Rv1 xenografts (subcutaneous daily injection); type: in vivo, mouse; settings: 20 days
Method: To confirm these in vitro results, mice were inoculated subcutaneously (SQ) with CWR-22Rv1 cells and remained untreated until the tumors grew to ~ 200 mm3 (i.e., ~ 200 mgs) and then they were randomly assigned to groups (n=10) which were injected SQ daily with 100 μl of propylene glycol vehicle only vs. vehicle delivering 0.1 or 1 mg/kg/day of either tasquinimod or its carboxamide-N-demethylated metabolite. Propylene glycol was used as vehicle due to the low water solubility of the carboxamide-N-demethylated metabolite. After 20 days of continuous treatment, the experiment was terminated and the total weight of each cancer determined and the results expressed both as average tumor weight in grams and as the ratio of the weight of the cancers in the treated vs. vehicle control animals (i.e., T/C ratio), Figure 5A.
as §1

[4] = system: CWR-22Rv1 human prostate cancer cells; experiment: Plasma membrane associated vs nuclear drug uptake in CWR-22Rv1 cells; type: cell-based
Method: Based upon these preliminary validation, cells were incubated in 10% fetal bovine serum (FBS) supplemented media containing 1μM ^14C-labeled tasquinimod for <10 minutes. When these cells are rapidly (< 20sec) separated from the media by vacuum filtration onto glass microfiber filter and the filters rapidly (< 20sec) washed, radiolabeled drug is retained by the washed cells and this radioactivity can be used to calculate the total cell associated concentration of drug (CAt). If instead after the washes, media are added above the filters and allowed to remain for a 15 minutes “wash out” period before being vacuumed off and subsequently rapidly (< 20sec) washed with drug free media, […]. […] Thus, total plasma membrane associated drug concentration (PMt) is determined by subtracting the ICt from the CAt value.
To determine the total nuclear concentration of drug (Nt), a modified protocol was needed to allow the rapid lyses of cells and rapid isolation of cell nuclei by differential centrifugation. This could not be accomplished using the usual method of detergent lyses because detergents extract bound drug due to its lipophilicity. Therefore, a detergent free protocol using nitrogen cavitation was developed to rapidly lyse cells and allow the rapid isolation of nuclei via differential centrifugation. Using this cavitation protocol, it was documented that within 1 hour, total nuclear drug concentration (Nt) equals that of the protein-free drug concentration in the media (i.e., 0.2 μM), and that after 4 hours equals PMt (i.e., see Figure 3B, right panel for representative results for the CWR-22Rv1 cells). From 8 hours onward, Nt is more than 10 fold higher than the free and 2 fold higher than the total drug concentration in the media, Figure 3B, right panel. For example at 24 hours post exposure to 1 μM tasquinimod in 10% FBS containing media, the Nt is 2.4 ± 0.3 μM, Figure 3B, right panel. At this 24 hours period, total radioactive drug in isolated nuclei from all 3 prostate cancer lines, as well as HUVEC cells (i.e., nuclear concentration in these 4 lines ranged from 2.2-3.1 μM) was extracted with acetonitrile and the extracts analyzed by HPLC. […] To resolve this, nuclear uptake was determined 24 hours post exposure to 1 μM tasquinimod in serum free media. These studies again documented that nuclear tasquinimod concentration in these 4 cell lines ranged from 2.5-3.5 μM documenting that binding to albumin is not required for cell uptake.
A rapid filtration method was developed and validated to measures the kinetics of tasquinimod cell uptake on a series of human cell lines. To do this, exponentially growing cells in a tissue culture flask are trypsinized, and the number of single cells counted and their average diameter determined electronically using Cellometer AutoT4 (Nexcelom, Lawrence, MA). Then multiple replicates (N=3-6) of 10^7 cells per time point were incubated from 5 minutes to 48 hours. at 37°C in 1ml of tissue culture media containing 10% fetal bovine serum (FBS) plus 1μM ^14C-labeled tasquinimod. The cells in each replicate incubation were then rapidly separated from the tasquinimod containing media by vacuum filtration onto a 24mm Whatman GF/C glass microfiber filter (GE Healthcare Sciences, Piscataway, NJ) using a Millipore 1225 sampling manifold (Millipore, Billerica MA). The filters are then rapidly washed and filtered (<20 seconds per wash) 3 times with 2mls of drug free FBS containing tissue culture media. Half of the replicate filters are then dried overnight and counted for determination of the total cell associated amount of drug (i.e., plasma membrane associated plus intracellular uptake). To the remaining half of the replicate filters, 2mls of drug free FBS containing tissue culture media is added above the filters and allowed to remain there for 15 minutes before being filtered off. […]

time to steady state PMt ([4]; 1 μM in 10% FBS media): 5 to 10 min | total plasma membrane associated drug concentration (PMt), steady state ([4]; 1 μM in 10% FBS media, maintained to 48 hours): ~ 1 μM | total nuclear drug concentration (Nt) ([4]; 24 hours post exposure to 1 μM in 10% FBS containing media): 2.4 ± 0.3 µM | Nt relative to free drug concentration in the media ([4]; from 8 hours onward): more than 10 fold | Nt relative to total drug concentration in the media ([4]; from 8 hours onward): > 2 fold | total nuclear drug concentration (Nt) ([4]; within 1 hour, 1 μM in 10% FBS media): 0.2 µM
SMILES: COc1cccc2c1c(O)c(C(=O)N(C)c1ccc(C(F)(F)F)cc1)c(=O)n2C [Tasquinimod]
inhibition of TRAMP-C2 mouse prostate cancer growth ([1]; immune-competent syngeneic mice): > 80% | inhibition of blood vessel density within the TRAMP-C2 cancers ([1]; treated vs. control): 75 ± 9% | tumor take and subsequent malignant growth [2]: prevents tumor take | Avg Tumor Weight ([3]; 0.1 mg/kg/day SQ): 0.855 ± 0.203 g | T/C Ratio ([3]; 0.1 mg/kg/day SQ): 0.491 | Avg Tumor Weight ([3]; 1 mg/kg/day SQ): 0.668 ± 0.166 g | T/C Ratio ([3]; 1 mg/kg/day SQ): 0.383 | potency on an equal dose basis vs carboxamide-N-demethylated metabolite ([3]; 0.1 or 1 mg/kg/day SQ): equipotent

— paper PMC4226669, “Anti-cancer potency of tasquinimod is enhanced via albumin-binding facilitating increased uptake in the tumor microenvironment” (Oncotarget, 2014)
